According to US20260285855A1, “HETEROARYL DERIVATIVES AS DDRS INHIBITORS” (CHIESI FARMACEUTICI S.P.A., priority 2023, published 2026):

Legend:
DDR1 = target: T1, DDR1 (Homo sapiens, UniProt Q08345); test: LanthaScreen Europium Kinase Binding assay, DDR1; conditions: 5 nM DDR1, 20 nM Kinase Tracer 178, 1 h at rt; Ki from IC50 by Cheng-Prusoff; read-out: Ki DDR1
T1 construct: purchased Carna Biosciences
Method: (§1) DDR1 and DDR2 binding assays were performed using Life Technologies LanthaScreen™ Europium Kinase Binding assay. […] IC50 values were determined in GraphPad Prism 7.0 software, using 4 parameter model: log (inhibitor) vs. response. IC50 values were converted in Ki using the Cheng-Prusoff equation (Ki-IC50/(1+ [Tracer]/Kd).

DDR2 = target: T2, DDR2 (Homo sapiens, UniProt Q16832); test: LanthaScreen Europium Kinase Binding assay, DDR2; conditions: 5 nM DDR2, 10 nM Kinase Tracer 178, 1 h at rt; Ki from IC50 by Cheng-Prusoff; read-out: Ki DDR2
T2 construct: purchased Life Technologies
T2 sequence (Q16832 22-855): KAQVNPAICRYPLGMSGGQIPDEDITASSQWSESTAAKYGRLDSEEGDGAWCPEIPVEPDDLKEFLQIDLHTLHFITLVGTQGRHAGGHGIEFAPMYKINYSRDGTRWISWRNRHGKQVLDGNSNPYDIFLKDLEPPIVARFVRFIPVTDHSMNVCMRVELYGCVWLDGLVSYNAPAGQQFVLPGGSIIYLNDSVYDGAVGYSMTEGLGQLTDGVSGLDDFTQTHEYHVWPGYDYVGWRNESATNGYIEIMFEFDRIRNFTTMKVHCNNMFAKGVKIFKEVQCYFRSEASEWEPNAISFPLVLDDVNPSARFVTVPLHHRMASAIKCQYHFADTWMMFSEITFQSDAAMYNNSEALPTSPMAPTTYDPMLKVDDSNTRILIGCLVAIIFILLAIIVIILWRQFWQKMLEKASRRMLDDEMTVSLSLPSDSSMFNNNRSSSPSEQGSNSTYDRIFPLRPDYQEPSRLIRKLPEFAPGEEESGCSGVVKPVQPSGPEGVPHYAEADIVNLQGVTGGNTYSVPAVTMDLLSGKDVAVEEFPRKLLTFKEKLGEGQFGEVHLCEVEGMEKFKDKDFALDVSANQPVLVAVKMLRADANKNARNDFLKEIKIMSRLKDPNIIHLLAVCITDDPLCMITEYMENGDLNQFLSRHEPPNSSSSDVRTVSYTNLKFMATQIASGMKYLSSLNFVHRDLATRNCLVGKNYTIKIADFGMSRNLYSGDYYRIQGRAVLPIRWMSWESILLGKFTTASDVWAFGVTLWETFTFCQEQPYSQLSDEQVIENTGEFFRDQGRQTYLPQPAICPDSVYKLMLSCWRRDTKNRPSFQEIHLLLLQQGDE
Method: as §1

T1 sequence (Q08345 19-913): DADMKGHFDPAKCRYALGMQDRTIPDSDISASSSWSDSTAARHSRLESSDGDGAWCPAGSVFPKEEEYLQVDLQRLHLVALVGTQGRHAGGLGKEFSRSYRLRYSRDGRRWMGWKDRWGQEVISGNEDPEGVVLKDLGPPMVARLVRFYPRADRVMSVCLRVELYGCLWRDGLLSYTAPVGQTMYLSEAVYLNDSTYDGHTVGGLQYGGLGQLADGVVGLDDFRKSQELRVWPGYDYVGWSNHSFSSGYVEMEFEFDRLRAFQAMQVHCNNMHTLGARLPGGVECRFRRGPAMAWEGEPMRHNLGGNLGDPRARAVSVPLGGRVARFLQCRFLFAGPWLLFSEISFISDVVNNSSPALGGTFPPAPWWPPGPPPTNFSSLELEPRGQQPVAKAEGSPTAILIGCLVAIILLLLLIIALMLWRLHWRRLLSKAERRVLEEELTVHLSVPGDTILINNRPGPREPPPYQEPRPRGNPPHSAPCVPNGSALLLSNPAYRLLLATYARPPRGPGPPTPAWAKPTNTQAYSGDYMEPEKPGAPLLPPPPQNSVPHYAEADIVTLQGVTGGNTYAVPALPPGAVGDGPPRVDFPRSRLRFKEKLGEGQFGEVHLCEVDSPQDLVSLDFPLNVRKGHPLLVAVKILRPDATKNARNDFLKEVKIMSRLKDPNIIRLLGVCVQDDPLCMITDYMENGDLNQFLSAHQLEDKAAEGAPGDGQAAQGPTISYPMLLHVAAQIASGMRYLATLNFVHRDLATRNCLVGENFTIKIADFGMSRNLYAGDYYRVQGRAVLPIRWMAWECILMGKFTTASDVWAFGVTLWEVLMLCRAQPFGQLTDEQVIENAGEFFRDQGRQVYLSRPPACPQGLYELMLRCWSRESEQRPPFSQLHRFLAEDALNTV

SMILES	Ki (DDR1) [nM]	Ki (DDR2) [nM]
Cn1ccn2ncc(C(=O)N3CC4(CC(N(C(=O)Nc5cccc(C(F)(F)F)c5)C5CC5)C4)C3)c12 [Example 187, 1-cyclopropyl-1-(2-(1-methyl-1H-imidazo[1,2-b]pyrazole-7-carbonyl)-2-azaspiro[3.3]heptan-6-yl)-3-(3-(trifluoromethyl)phenyl)urea]	< 5	5 to 25
Cc1ccc(OC(F)(F)F)cc1NC(=O)N(C)C1CC2(C1)CN(C(=O)c1ccnc3[nH]ncc13)C2 [Example 188, 1-(2-(1H-pyrazolo[3,4-b]pyridine-4-carbonyl)-2-azaspiro[3.3]heptan-6-yl)-1-methyl-3-(2-methyl-5-(trifluoromethoxy)phenyl)urea]	< 5	5 to 25
CN(C(=O)Nc1cc(OC(F)(F)F)ccn1)C1CC2(C1)CN(C(=O)c1ccnc3[nH]ncc13)C2 [Example 189, 1-(2-(1H-pyrazolo[3,4-b]pyridine-4-carbonyl)-2-azaspiro[3.3]heptan-6-yl)-1-methyl-3-(4-(trifluoromethoxy)pyridin-2-yl)urea]	5 to 25	5 to 25
CN(C(=O)Nc1cc(OC(F)(F)F)ccn1)C1CC2(C1)CN(C(=O)c1cnn3ccncc13)C2 [Example 190, 1-methyl-1-(2-(pyrazolo[1,5-a]pyrazine-3-carbonyl)-2-azaspiro[3.3]heptan-6-yl)-3-(4-(trifluoromethoxy)pyridin-2-yl)urea]	5 to 25	25 to 100
CC1(NC(=O)Nc2cccc(C(F)(F)F)c2)CC2(CN(C(=O)c3ncnc4ccsc34)C2)C1 [Example 191]	< 5	5 to 25
Cn1cc(N2CCOCC2)n2ncc(C(=O)N3CC4(CC(NC(=O)Nc5cccc(C(F)(F)F)c5)C4)C3)c12 [Example 192, 1-(2-(1-methyl-3-morpholino-1H-imidazo[1,2-b]pyrazole-7-carbonyl)-2-azaspiro[3.3]heptan-6-yl)-3-(3-(trifluoromethyl)phenyl)urea]	25 to 100	25 to 100
Cc1cc(C(F)(F)F)cc(NC(=O)N(C)C2CC3(C2)CN(C(=O)c2cnn4ccn(C)c24)C3)c1F [Example 193, 3-(2-fluoro-3-methyl-5-(trifluoromethyl)phenyl)-1-methyl-1-(2-(1-methyl-1H-imidazo[1,2-b]pyrazole-7-carbonyl)-2-azaspiro[3.3]heptan-6-yl)urea]	< 5	5 to 25
CSCCn1ccn2ncc(C(=O)N3CC4(CC(NC(=O)Nc5cccc(C(F)(F)F)c5)C4)C3)c12 [Example 194, 1-(2-(1-(2-(methylthio)ethyl)-1H-imidazo[1,2-b]pyrazole-7-carbonyl)-2-azaspiro[3.3]heptan-6-yl)-3-(3-(trifluoromethyl)phenyl)urea]	< 5	5 to 25
CN(C(=O)Nc1cccc(C(F)(F)F)c1)C1CC2(C1)CN(C(=O)c1cnn3ccn(CCF)c13)C2 [Example 195, 1-(2-(1-(2-fluoroethyl)-1H-imidazo[1,2-b]pyrazole-7-carbonyl)-2-azaspiro[3.3]heptan-6-yl)-1-methyl-3-(3-(trifluoromethyl)phenyl)urea]	< 5	5 to 25
CSCn1ccn2ncc(C(=O)N3CC4(CC(NC(=O)Nc5cccc(C(F)(F)F)c5)C4)C3)c12 [Example 196, 1-(2-(1-((methylthio)methyl)-1H-imidazo[1,2-b]pyrazole-7-carbonyl)-2-azaspiro[3.3]heptan-6-yl)-3-(3-(trifluoromethyl)phenyl)urea]	< 5	5 to 25
CN(C(=O)Nc1cncc(Br)c1)C1CC2(C1)CN(C(=O)c1cnn3ccn(C)c13)C2 [Example 197, 3-(5-bromopyridin-3-yl)-1-methyl-1-(2-(1-methyl-1H-imidazo[1,2-b]pyrazole-7-carbonyl)-2-azaspiro[3.3]heptan-6-yl)urea]	< 5	5 to 25
CN(C(=O)Nc1cccc(C2(C(F)(F)F)CC2)c1)C1CC2(C1)CN(C(=O)c1cnn3ccn(C)c13)C2 [Example 198, 1-methyl-1-(2-(1-methyl-1H-imidazo[1,2-b]pyrazole-7-carbonyl)-2-azaspiro[3.3]heptan-6-yl)-3-(3-(1-(trifluoromethyl)cyclopropyl)phenyl)urea]	< 5	< 5
CN(C(=O)Nc1cc(C(C)(C)C(F)(F)F)on1)C1CC2(C1)CN(C(=O)c1cnn3ccn(C)c13)C2 [Example 199, 1-methyl-1-(2-(1-methyl-1H-imidazo[1,2-b]pyrazole-7-carbonyl)-2-azaspiro[3.3]heptan-6-yl)-3-(5-(1,1,1-trifluoro-2-methylpropan-2-yl)isoxazol-3-yl)urea]	< 5	5 to 25
CN(C(=O)Nc1cc(Br)ccn1)C1CC2(C1)CN(C(=O)c1cnn3ccn(C)c13)C2 [Example 200, 3-(4-bromopyridin-2-yl)-1-methyl-1-(2-(1-methyl-1H-imidazo[1,2-b]pyrazole-7-carbonyl)-2-azaspiro[3.3]heptan-6-yl)urea]	< 5	5 to 25

Next, values leading:

Ki (DDR1) [nM]	Ki (DDR2) [nM]	SMILES
< 5	25 to 100	CN(C(=O)Nc1cc(OC(F)F)ccn1)C1CC2(C1)CN(C(=O)c1cnn3ccn(C)c13)C2 [Example 177, 3-(4-(difluoromethoxy)pyridin-2-yl)-1-methyl-1-(2-(1-methyl-1H-imidazo[1,2-b]pyrazole-7-carbonyl)-2-azaspiro[3.3]heptan-6-yl)urea]
< 5	25 to 100	CN(C(=O)Nc1cc(C(F)(F)F)ncn1)C1CC2(C1)CN(C(=O)c1cnn3ccsc13)C2 [Example 178, 1-methyl-1-(2-(pyrazolo[5,1-b]thiazole-7-carbonyl)-2-azaspiro[3.3]heptan-6-yl)-3-(6-(trifluoromethyl)pyrimidin-4-yl)urea]
< 5	5 to 25	CN(C(=O)Nc1cncc(OC(F)(F)F)c1)C1CC2(C1)CN(C(=O)c1cnn3ccsc13)C2 [Example 179, 1-methyl-1-(2-(pyrazolo[5,1-b]thiazole-7-carbonyl)-2-azaspiro[3.3]heptan-6-yl)-3-(5-(trifluoromethoxy)pyridin-3-yl)urea]
< 5	5 to 25	Cc1ncc(NC(=O)N(C)C2CC3(C2)CN(C(=O)c2cnn4ccn(C)c24)C3)cc1C(F)(F)F [Example 180, 1-methyl-1-(2-(1-methyl-1H-imidazo[1,2-b]pyrazole-7-carbonyl)-2-azaspiro[3.3]heptan-6-yl)-3-(6-methyl-5-(trifluoromethyl)pyridin-3-yl)urea]
< 5	5 to 25	Cc1ncc(NC(=O)NC2CC3(C2)CN(C(=O)c2cnn4ccn(C)c24)C3)cc1C(F)(F)F [Example 181, 1-(2-(1-methyl-1H-imidazo[1,2-b]pyrazole-7-carbonyl)-2-azaspiro[3.3]heptan-6-yl)-3-(6-methyl-5-(trifluoromethyl)pyridin-3-yl)urea]
< 5	< 5	Cn1cc(-c2ccc3c(C(=O)N4CC5(CC(NC(=O)Nc6cccc(C(F)(F)F)c6)C5)C4)cnn3c2)cn1 [Example 182, 1-(2-(6-(1-methyl-1H-pyrazol-4-yl)pyrazolo[1,5-a]pyridine-3-carbonyl)-2-azaspiro[3.3]heptan-6-yl)-3-(3-(trifluoromethyl)phenyl)urea]
< 5	5 to 25	O=C(Nc1cccc(C(F)(F)F)c1)NC1CC2(C1)CN(C(=O)c1cnn3ccc(N4CCS(=O)(=O)CC4)cc13)C2 [Example 183, 1-(2-(5-(1,1-dioxidothiomorpholino)pyrazolo[1,5-a]pyridine-3-carbonyl)-2-azaspiro[3.3]heptan-6-yl)-3-(3-(trifluoromethyl)phenyl)urea]
< 5	< 5	Nc1ccn2ncc(C(=O)N3CC4(CC(NC(=O)Nc5cccc(C(F)(F)F)c5)C4)C3)c2c1 [Example 184, 1-(2-(5-aminopyrazolo[1,5-a]pyridine-3-carbonyl)-2-azaspiro[3.3]heptan-6-yl)-3-(3-(trifluoromethyl)phenyl)urea]
< 5	< 5	O=C(Nc1cccc(C(F)(F)F)c1)NC1CC2(C1)CN(C(=O)c1cnn3ccc(N4CCC(O)C4)cc13)C2 (stereo not drawn) [Example 185, 1-(2-(5-(3-hydroxypyrrolidin-1-yl)pyrazolo[1,5-a]pyridine-3-carbonyl)-2-azaspiro[3.3]heptan-6-yl)-3-(3-(trifluoromethyl)phenyl)urea]
< 5	5 to 25	CN1CCN(c2ccn3ncc(C(=O)N4CC5(CC(NC(=O)Nc6cccc(C(F)(F)F)c6)C5)C4)c3c2)C(=O)C1 [Example 186, 1-(2-(5-(4-methyl-2-oxopiperazin-1-yl)pyrazolo[1,5-a]pyridine-3-carbonyl)-2-azaspiro[3.3]heptan-6-yl)-3-(3-(trifluoromethyl)phenyl)urea]
